Results from PMC5742828, “α-Glucosidase and Protein Tyrosine Phosphatase 1B Inhibitory Activity of Plastoquinones from Marine Brown Alga Sargassum serratifolium” (Marine Drugs, 2017).

How the values were obtained:
Format in all cases: biochemical
[1] = target: T1, PTP1B (human recombinant) (Homo sapiens, UniProt P18031); assay: Kinetic study against PTP1B (Dixon plots); conditions: Dixon plot; pNPP 0.5, 1.0, 2.0 mM
T1 construct: purchased Biomol International LP (Plymouth Meeting, PA, USA)
T1 sequence (P18031 1-435): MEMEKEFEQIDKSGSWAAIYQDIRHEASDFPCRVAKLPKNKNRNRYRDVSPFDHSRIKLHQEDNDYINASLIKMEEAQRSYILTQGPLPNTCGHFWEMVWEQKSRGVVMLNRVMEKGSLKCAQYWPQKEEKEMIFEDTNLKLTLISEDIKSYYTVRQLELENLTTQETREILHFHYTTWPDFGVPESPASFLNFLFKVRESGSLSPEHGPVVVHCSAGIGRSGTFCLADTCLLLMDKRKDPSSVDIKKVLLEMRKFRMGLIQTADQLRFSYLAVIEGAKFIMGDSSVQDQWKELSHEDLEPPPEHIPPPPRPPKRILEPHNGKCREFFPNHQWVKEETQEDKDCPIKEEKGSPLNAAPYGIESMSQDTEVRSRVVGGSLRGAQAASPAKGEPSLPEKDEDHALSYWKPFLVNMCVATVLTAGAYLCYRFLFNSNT
Experimental: (§1) In an attempt to explain the mode of enzymatic inhibition of sargahydroquinoic acid, sargachromenol, and sargaquinoic acid, kinetic analysis was performed at different concentrations of the substrate (pNPP for PTP1B and pNPG for α-glucosidase) and inhibitor.
Figure 3 Dixon plots for PTP1B inhibition of compounds. (a) sargahydroquinoic acid; (b) sargachromenol and (c) sargaquinoic acid were tested in the presence of different concentrations of substrate: 2.0 mM (●); 1.0 mM (ο); 0.5 mM (▼).
(§2) To determine the modes of enzyme inhibition, Dixon plots were used. The kinetic analyses were performed at different concentrations of substrate (0.625, 1.25, and 2.5 mM pNPG for α-glucosidase; 0.5, 1.0, and 2.0 mM pNPP for PTP1B) and various concentrations of plastoquinones (0, 0.4, 2.0, and 10.0 µM for PTP1B and 0, 25, 50 and 100 µM for α-glucosidase, respectively). Enzymatic inhibition of the test plastoquinones was evaluated by monitoring the effects of different concentrations of the substrate in the Dixon plots (single reciprocal plots). The enzymatic procedure consisted of the same aforementioned assay method. The inhibition constants (Ki) were determined via interpretation of the Dixon plots, where the value of the x-axis implies -Ki.

[2] = system: bovine serum albumin (BSA); assay: Inhibition of ONOO−-mediated albumin nitration (western blot, 3-nitrotyrosine antibody); conditions: ONOO− 200 µM
Experimental: Figure 5 Dose-depended inhibition of ONOO^−-mediated albumin nitration by plastoquinones. Mixtures of test samples, bovine serum albumin (BSA), and ONOO^− were incubated with shaking at 37 °C for 30 min. The reactant was resolved in 10% polyacrylamide gel via electrophoresis. (a) sargahydroquinoic acid; (b) sargachromenol; and (c) sargaquinoic acid were used at the indicated concentrations; (d) Quantification of band intensity was calculated using CS Analyzer 3.00 (ATTO Corp., Tokyo, Japan). ^# p < 0.05 indicates a significant difference from the untreated normal group, * p < 0.05 indicate significant differences from the ONOO^− treated control.
The inhibition of ONOO^–-mediated nitrated albumin was evaluated using the method of Aulak et al.. Samples were added to bovine serum albumin (BSA) and mixed with ONOO^− (200 µM). After 10 min incubation (room temperature), the sample solution was added to Bio-Rad 2X Laemmli Sample buffer with mercaptoethanol and then boiled for 7 min. The reactant was resolved in 10% polyacrylamide gel via electrophoresis and transferred onto PVDF membranes. Pre-stained blue protein markers were used for molecular weight determination. Monoclonal anti-nitrotyrosine antibody (85 kDa) was used as a primary antibody and horseradish peroxidase-conjugated sheep anti-mouse secondary antibody was used as a secondary antibody. Antibody labeling was visualized using the Supersignal West Pico Chemiluminescent substrate (Pierce Chemical Co., Rockford, IL, USA). Densitometric analysis of the western blot results was determined using CS analyzer v3.00 (ATTO Corp.).

[3] = target: T1, PTP1B (human recombinant); assay: PTP1B inhibitory assay (pNPP substrate); conditions: log-dose inhibition curve; mean ± SEM of triplicate experiments
Experimental: Dithiothreitol (DTT) was purchased from Bio-Rad Laboratories (Hercules, CA, USA) and PTP1B (human recombinant) was purchased from Biomol International LP (Plymouth Meeting, PA, USA). ONOO^− was purchased from Molecular Probes Cayman (Ann Arbor, MI, USA). All other chemicals and solvents used were purchased from E. Merck, Fluka, and Sigma-Aldrich, unless otherwise stated. The PTP1B inhibitory activities of the plastoquinones were evaluated using pNPP [68]. Recombinant PTP1B enzyme (0.5 units diluted with a PTP1B reaction buffer) was added with or without sample. The plate was pre-incubated at 37 °C for 10 min and then substrate (2 mM pNPP) was added. Following incubation at 37 °C for 15 min, the enzymatic reaction was terminated by the addition of 10 M NaOH.

[4] = target: Yeast α-glucosidase (Saccharomyces cerevisiae, UniProt P53341); assay: Kinetic study against α-glucosidase (Dixon plots); conditions: Dixon plot; pNPG 0.625, 1.25, 2.5 mM
Sequence of Yeast α-glucosidase (P53341 whole entry): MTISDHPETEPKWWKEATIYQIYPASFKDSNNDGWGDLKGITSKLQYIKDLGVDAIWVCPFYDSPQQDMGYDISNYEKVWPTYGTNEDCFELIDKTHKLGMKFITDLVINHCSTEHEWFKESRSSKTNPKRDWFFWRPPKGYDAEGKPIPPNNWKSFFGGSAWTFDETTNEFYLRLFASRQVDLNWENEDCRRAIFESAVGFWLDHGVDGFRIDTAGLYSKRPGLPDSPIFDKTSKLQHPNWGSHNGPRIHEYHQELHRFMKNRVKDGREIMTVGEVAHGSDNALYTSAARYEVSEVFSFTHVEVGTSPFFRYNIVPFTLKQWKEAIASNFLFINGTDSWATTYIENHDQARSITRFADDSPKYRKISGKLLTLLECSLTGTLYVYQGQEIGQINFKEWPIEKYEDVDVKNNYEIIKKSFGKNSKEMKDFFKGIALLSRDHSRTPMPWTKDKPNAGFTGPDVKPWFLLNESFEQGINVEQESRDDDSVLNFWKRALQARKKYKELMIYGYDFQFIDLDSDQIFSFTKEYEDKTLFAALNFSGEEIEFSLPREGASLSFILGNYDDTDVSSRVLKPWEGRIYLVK
Experimental: as §1
Figure 4 Dixon plots for α-glucosidase inhibition of compounds. (a) sargachromenol and (b) sargaquinoic acid were tested in the presence of different concentrations of substrate: 2.5 mM (●); 1.25 mM (ο); 0.625 mM (▼).
as §2

SMILES	Ki [1]	PTP1B Inhibition Type [1]	Inhibition of ONOO−-mediated albumin nitration ([2]; pretreatment at 2.5–10 μM)	IC50 [3]	α-Glucosidase Inhibition Type [4]	Inhibition of ONOO−-mediated albumin nitration ([2]; pretreatment at 5–25 μM)
CC(C)=CCC/C(=C/CC/C(C)=C/CCC1(C)C=Cc2cc(O)cc(C)c2O1)C(=O)O (centres unmarked) [Sargachromenol, sargachromenol]	5.85 µM	Non-competitive	strong inhibition	11.8 ± 3.35 µM	Non-competitive	–
CC(C)=CCC/C(=C/CC/C(C)=C/CC/C(C)=C/Cc1cc(O)cc(C)c1O)C(=O)O [Sargahydroquinoic acid, sargahydroquinoic acid]	2.21 µM	Mixed	–	5.14 ± 0.07 µM	–	markedly dose-dependent inhibition
CC(C)=CCC/C(=C/CC/C(C)=C/CC/C(C)=C/CC1=CC(=O)C=C(C)C1=O)C(=O)O [Sargaquinoic acid, sargaquinoic acid]	5.2 µM	Mixed	–	14.15 ± 0.02 µM	Mixed	markedly dose-dependent inhibition
